We go through 24 compounds from US11427553B2, “Dihydrooxadiazinones” (Bayer Aktiengesellschaft, priority 2017, dated 2022).

Structures are written as SMILES. Where only a bound is given, the exact number is not on record here.

For one assay, the system named is HeLa cells. Briefly: Assay 1 cell proliferation measurement (CTG, 72 h), HeLa. The settings on record: Homo sapiens, HeLa; Assay 1, 72 h, Cell Titer Glo; read-out: HeLa IC50 [nM] (Cervical cancer). Type of assay: cell-based, human. Summed up:
(§1)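 CTG luminescence readout after 72 h compound exposure at 37 °C; 10-point 2.5-fold dilutions from 100 nM max final; DMSO 0.3% vehicle. IC50 from 4-parameter fit, normalised to 0 h plate (max inhibition) and DMSO (min inhibition).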
Background: ATP-based viability assays read luminescence as a measure of living cells.

For another assay, the system named is SK-MEL-3 cells. Kind of assay: Assay 1 cell proliferation measurement (CTG, 72 h), SK-MEL-3. Type of assay: cell-based, human. To be noted: Homo sapiens, SK-MEL3; Assay 1, 72 h, Cell Titer Glo; read-out: SK-MEL-3 IC50 [nM] (melanoma). The essentials: as §1
The target of another assay is human full length PDE3A (Homo sapiens (Human), UniProt Q14432). Briefly: Assay 4 PDE3A enzyme inhibition (3H-cAMP SPA). The format is biochemical. The settings on record: Sf9 cell extract. Summed up:
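Hydrolysis of [8-3H]cAMP by Sf9-expressed full-length PDE3A was measured by scintillation proximity, with enzyme diluted to keep kinetics linear and substrate consumption below 70%. Incubation ran 60 min at room temperature at pH 7.5.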

The target of a further assay is human full length PDE3B (Homo sapiens (Human), UniProt Q13370). Kind of assay: Assay 5 PDE3B enzyme inhibition (3H-cAMP SPA). The settings on record: Sf9 cell extract. Type of assay: biochemical. The essentials:
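Hydrolysis of tritiated cAMP by Sf9-expressed full-length human PDE3B proceeded 60 min at room temperature in Tris buffer pH 7.5 containing Mg2+, EDTA and BSA, with enzyme dilution keeping substrate consumption below 70%. IC50 derived from percent activity versus log compound concentration.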

Sequence of human full length PDE3B (Q13370 whole entry): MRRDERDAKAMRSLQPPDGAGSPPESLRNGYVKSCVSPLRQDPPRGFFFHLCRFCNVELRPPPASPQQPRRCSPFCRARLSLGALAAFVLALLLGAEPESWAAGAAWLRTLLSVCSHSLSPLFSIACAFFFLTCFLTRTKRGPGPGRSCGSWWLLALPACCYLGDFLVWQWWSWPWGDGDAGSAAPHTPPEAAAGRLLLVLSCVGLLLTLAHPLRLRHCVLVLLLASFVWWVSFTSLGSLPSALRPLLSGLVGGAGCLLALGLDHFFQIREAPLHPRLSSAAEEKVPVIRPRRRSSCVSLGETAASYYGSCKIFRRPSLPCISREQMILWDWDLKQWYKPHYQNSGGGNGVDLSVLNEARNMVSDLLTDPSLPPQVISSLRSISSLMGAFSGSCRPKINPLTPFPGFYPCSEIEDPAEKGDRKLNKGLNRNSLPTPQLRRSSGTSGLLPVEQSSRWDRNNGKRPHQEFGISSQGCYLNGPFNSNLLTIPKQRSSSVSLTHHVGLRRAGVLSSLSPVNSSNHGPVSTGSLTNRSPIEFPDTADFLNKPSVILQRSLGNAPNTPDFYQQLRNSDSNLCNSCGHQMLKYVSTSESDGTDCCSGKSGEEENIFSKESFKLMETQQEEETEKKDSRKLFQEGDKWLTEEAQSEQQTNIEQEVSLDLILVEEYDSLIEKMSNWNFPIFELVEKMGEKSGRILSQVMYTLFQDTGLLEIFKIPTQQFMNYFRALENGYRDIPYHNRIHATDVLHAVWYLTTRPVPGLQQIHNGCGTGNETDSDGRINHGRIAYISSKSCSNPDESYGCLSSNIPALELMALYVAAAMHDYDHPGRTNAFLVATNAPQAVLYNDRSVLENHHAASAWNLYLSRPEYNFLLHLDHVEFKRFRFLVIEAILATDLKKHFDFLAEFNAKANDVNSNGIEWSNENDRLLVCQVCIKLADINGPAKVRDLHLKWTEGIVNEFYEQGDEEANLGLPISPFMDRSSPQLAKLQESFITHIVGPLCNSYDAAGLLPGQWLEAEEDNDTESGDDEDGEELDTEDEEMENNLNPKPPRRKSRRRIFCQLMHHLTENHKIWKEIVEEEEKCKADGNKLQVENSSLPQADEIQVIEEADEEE
Sequence of human full length PDE3A (Q14432 whole entry): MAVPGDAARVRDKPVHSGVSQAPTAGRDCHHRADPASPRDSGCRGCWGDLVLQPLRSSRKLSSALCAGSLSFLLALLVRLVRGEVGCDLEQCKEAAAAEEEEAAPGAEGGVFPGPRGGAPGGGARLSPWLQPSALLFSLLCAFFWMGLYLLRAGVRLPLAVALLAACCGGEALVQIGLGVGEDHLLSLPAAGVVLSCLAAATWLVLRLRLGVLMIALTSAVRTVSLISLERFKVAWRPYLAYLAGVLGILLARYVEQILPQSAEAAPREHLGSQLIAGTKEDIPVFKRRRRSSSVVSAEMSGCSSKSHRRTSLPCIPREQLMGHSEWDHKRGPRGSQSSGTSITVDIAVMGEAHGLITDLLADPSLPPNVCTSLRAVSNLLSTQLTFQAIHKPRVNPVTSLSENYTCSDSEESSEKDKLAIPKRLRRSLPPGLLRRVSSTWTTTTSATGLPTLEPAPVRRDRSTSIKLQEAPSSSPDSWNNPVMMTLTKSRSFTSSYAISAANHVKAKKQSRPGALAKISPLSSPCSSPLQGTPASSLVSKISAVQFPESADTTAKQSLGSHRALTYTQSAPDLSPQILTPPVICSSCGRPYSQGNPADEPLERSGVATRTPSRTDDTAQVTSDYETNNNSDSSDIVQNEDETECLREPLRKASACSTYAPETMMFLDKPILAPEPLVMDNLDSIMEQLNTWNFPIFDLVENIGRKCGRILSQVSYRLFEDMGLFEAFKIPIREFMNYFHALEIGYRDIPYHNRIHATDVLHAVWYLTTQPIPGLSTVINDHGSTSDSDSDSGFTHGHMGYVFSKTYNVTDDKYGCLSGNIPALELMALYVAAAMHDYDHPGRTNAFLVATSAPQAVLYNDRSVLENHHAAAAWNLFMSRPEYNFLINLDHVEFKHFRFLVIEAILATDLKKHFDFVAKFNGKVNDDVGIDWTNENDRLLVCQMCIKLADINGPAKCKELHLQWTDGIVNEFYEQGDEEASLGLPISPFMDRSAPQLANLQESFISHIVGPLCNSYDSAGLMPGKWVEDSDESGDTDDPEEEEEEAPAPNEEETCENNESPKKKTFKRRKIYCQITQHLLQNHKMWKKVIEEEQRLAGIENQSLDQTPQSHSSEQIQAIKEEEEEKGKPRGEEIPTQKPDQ

As usually defined, the IC50 is the concentration at which inhibition is half-maximal. As to `CC(C)CNc1ccc(C2=NNC(=O)OC2)cc1C(F)(F)F` [Example 221, 5-{4-[(2-Methylpropyl)amino]-3-(trifluoromethyl)phenyl}-3,6-dihydro-2H-1,3,4-oxadiazin-2-one], the concentration for half-maximal inhibition (IC50) in the assay on HeLa cells is 1 nM; in the assay on SK-MEL-3 cells it was 2 nM; on human full length PDE3A, 0.028 µM; on human full length PDE3B it was 0.056 µM.
For `O=C1NN=C(c2cc(F)c(N3CCOCC3)c(C(F)(F)F)c2)CO1` [Example 264, 5-[3-Fluoro-4-(morpholin-4-yl)-5-(trifluoromethyl)phenyl]-3,6-dihydro-2H-1,3,4-oxadiazin-2-one], in that order: 2 nM, 2 nM, 0.075 µM and 0.112 µM.
For `CC(C)(C)OC(=O)NCCNc1ccc(C2=NNC(=O)OC2)cc1C(F)(F)F` [Intermediate 67, tert-Butyl {2-[4-(2-oxo-3,6-dihydro-2H-1,3,4-oxadiazin-5-yl)-2-(trifluoromethyl)anilino]ethyl} carbamate], in that order: over 100 nM, over 100 nM, 0.006 µM and 0.007 µM.
On the same counts, the results for `Nc1ccc(-c2ccc(C3=NNC(=O)OC3)cc2F)cc1` [Example 80, 5-(4′-Amino-2-fluorobiphenyl-4-yl)-3,6-dihydro-2H-1,3,4-oxadiazin-2-one] are 2 nM, 6 nM, 0.034 µM and 0.087 µM.
As for `Cc1ccc(-c2ccc(C3=NNC(=O)OC3)cc2F)cc1` [Example 88, 5-(2-Fluoro-4′-methylbiphenyl-4-yl)-3,6-dihydro-2H-1,3,4-oxadiazin-2-one], the IC50 came to 2 nM in the assay on HeLa cells, 6 nM with SK-MEL-3 cells, 0.11 µM against human full length PDE3A and 0.25 µM on human full length PDE3B.
`C[C@@H]1OC(=O)NN=C1c1ccc(-c2cccc(N)c2)c(C(F)(F)F)c1` [Example 176, (6S)-5-[3′-Amino-2-(trifluoromethyl)[1,1′-biphenyl]-4-yl]-6-methyl-3,6-dihydro-2H-1,3,4-oxadiazin-2-one]: the IC50 turned out to be 2 nM in the assay on HeLa cells, 4 nM in the assay with SK-MEL-3 cells, 0.037 µM at human full length PDE3A and 0.035 µM against human full length PDE3B.
On the same counts, the results for `C[C@@H]1OC(=O)NN=C1c1ccc(-c2cccc(F)c2)c(C(F)(F)F)c1` [Example 181, (6S)-5-[3′-Fluoro-2-(trifluoromethyl)[1,1′-biphenyl]-4-yl]-6-methyl-3,6-dihydro-2H-1,3,4-oxadiazin-2-one] are 3 nM, 6 nM, 0.074 µM and 0.077 µM.
With `CC1CN(c2ccc(C3=NNC(=O)OC3)cc2F)CC(C)O1` (stereo not drawn) [Example 24, 5-{4-[2,6-Dimethylmorpholin-4-yl]-3-fluorophenyl}-3,6-dihydro-2H-1,3,4-oxadiazin-2-one], the IC50 in the assay on HeLa cells was 55 nM; in the assay with SK-MEL-3 cells, over 100 nM; against human full length PDE3A, 0.18 µM; against human full length PDE3B it was 0.11 µM.
For `Cc1cc(C2=NNC(=O)OC2)ccc1-c1ccc(=O)[nH]c1` [Example 12, 5-[3-Methyl-4-(6-oxo-1,6-dihydropyridin-3-yl)phenyl]-3,6-dihydro-2H-1,3,4-oxadiazin-2-one], in that order: 20 nM, 58 nM, 0.031 µM and 0.03 µM.
Consider `O=C1NN=C(c2ccc(-c3ccncc3)c(F)c2)CO1` [Example 93, 5-[3-Fluoro-4-(pyridin-4-yl)phenyl]-3,6-dihydro-2H-1,3,4-oxadiazin-2-one], for which the 50% inhibitory concentration (IC50) with HeLa cells is 7 nM; with SK-MEL-3 cells, 13 nM; against human full length PDE3A, 0.05 µM; against human full length PDE3B, 0.1 µM.
For `COc1ccccc1-c1ccc(C2=NNC(=O)O[C@H]2C)cc1C(F)(F)F` [Example 180, (6S)-5-[2′-Methoxy-2-(trifluoromethyl)[1,1′-biphenyl]-4-yl]-6-methyl-3,6-dihydro-2H-1,3,4-oxadiazin-2-one], in that order: 36 nM, 48 nM, 0.25 µM and 0.25 µM.
With `Cc1cc(C2=NNC(=O)OC2)ccc1Cl` [Intermediate 76, 5-(4-Chloro-3-methylphenyl)-3,6-dihydro-2H-1,3,4-oxadiazin-2-one], the IC50 in the assay on HeLa cells was determined as 40 nM; in the assay with SK-MEL-3 cells, 75 nM; against human full length PDE3A, 0.375 µM; at human full length PDE3B, 0.13 µM.
`O=C1NN=C(c2ccc(-c3cccnc3)c(C(F)(F)F)c2)CO1` [Example 33, 5-[4-(Pyridin-3-yl)-3-(trifluoromethyl)phenyl]-3,6-dihydro-2H-1,3,4-oxadiazin-2-one]: the IC50 in the assay on HeLa cells was determined as 6 nM; in the assay with SK-MEL-3 cells, 10 nM; against human full length PDE3A it was 0.065 µM; against human full length PDE3B, 0.08 µM.
On the same counts, the results for `C[C@@H]1OC(=O)NN=C1c1ccc(-c2ccccc2C#N)c(C(F)(F)F)c1` [Example 172, 4′-[(6S)-6-Methyl-2-oxo-3,6-dihydro-2H-1,3,4-oxadiazin-5-yl]-2′-(trifluoromethyl)[1,1′-biphenyl]-2-carbonitrile] are 37 nM, 48 nM, 0.29 µM and 0.52 µM.
For `CC1OC(=O)NN=C1c1ccc(Br)cc1` (racemic) [Intermediate 72, (rac)-5-(4-Bromophenyl)-6-methyl-3,6-dihydro-2H-1,3,4-oxadiazin-2-one], in that order: 78 nM, 260 nM, 0.32 µM and 0.4 µM.
In the case of `CC(C)Nc1ccc(C2=NNC(=O)OC2)cc1C(F)(F)F` [Example 137, 5-[4-(Propan-2-ylamino)-3-(trifluoromethyl)phenyl]-3,6-dihydro-2H-1,3,4-oxadiazin-2-one], the IC50 in the assay with HeLa cells was 1 nM; in the assay on SK-MEL-3 cells, 3 nM; on human full length PDE3A, 0.052 µM; at human full length PDE3B, 0.088 µM.
For `COc1cc(-c2ccc(C3=NNC(=O)OC3)cc2F)ccn1` [Example 95, 5-[3-Fluoro-4-(2-methoxypyridin-4-yl)phenyl]-3,6-dihydro-2H-1,3,4-oxadiazin-2-one], in that order: 33 nM, over 100 nM, 0.037 µM and 0.079 µM.
Turning to `C[C@@H]1OC(=O)NN=C1c1ccc(-c2ccc(F)c(F)c2F)c(C(F)(F)F)c1` [Example 170, (6S)-6-Methyl-5-[2′,3′,4′-trifluoro-2-(trifluoromethyl)[1,1′-biphenyl]-4-yl]-3,6-dihydro-2H-1,3,4-oxadiazin-2-one], the IC50 with HeLa cells was determined as 27 nM; in the assay on SK-MEL-3 cells, 40 nM; against human full length PDE3A it was 0.19 µM; against human full length PDE3B, 0.18 µM.
Take `O=C1NN=C(c2ccc(Cl)c(OC(F)(F)F)c2)CO1` [Intermediate 73, 5-[4-Chloro-3-(trifluoromethoxy)phenyl]-3,6-dihydro-2H-1,3,4-oxadiazin-2-one]: the IC50 was 58 nM in the assay on HeLa cells, over 100 nM in the assay with SK-MEL-3 cells, 0.72 µM at human full length PDE3A and over 1 µM against human full length PDE3B.
As for `CCn1cnc(-c2ccc(C3=NNC(=O)OC3)cc2C(F)(F)F)c1` [Example 151, 5-[4-(1-Ethyl-1H-imidazol-4-yl)-3-(trifluoromethyl)phenyl]-3,6-dihydro-2H-1,3,4-oxadiazin-2-one], the IC50 with HeLa cells came to 5 nM; with SK-MEL-3 cells, 5 nM; against human full length PDE3A it was 0.069 µM; on human full length PDE3B, 0.159 µM.
For `O=C1NN=C(c2ccc(NC3COC3)c(C(F)(F)F)c2)CO1` [Example 262, 5-{4-[(Oxetan-3-yl)amino]-3-(trifluoromethyl)phenyl}-3,6-dihydro-2H-1,3,4-oxadiazin-2-one], the IC50 with HeLa cells amounted to 2 nM; with SK-MEL-3 cells, 5 nM; against human full length PDE3A, 0.018 µM; at human full length PDE3B it was 0.02 µM.
For `C[C@@H]1OC(=O)NN=C1c1ccc(-c2cccc(O)c2)c(C(F)(F)F)c1` [Example 175, (6S)-5-[3′-Hydroxy-2-(trifluoromethyl)[1,1′-biphenyl]-4-yl]-6-methyl-3,6-dihydro-2H-1,3,4-oxadiazin-2-one], in that order: 6 nM, 3 nM, 0.026 µM and 0.024 µM.
Regarding `C[C@@H]1OC(=O)NN=C1c1ccc(F)c(C(F)(F)F)c1` [Intermediate 75, (6S)-5-(-[(4-Fluoro-3-(trifluoromethyl)phenyl)-)]-6-methyl-3,6-dihydro-2H-1,3,4-oxadiazin-2-one], the IC50 came to 22 nM with HeLa cells, 45 nM in the assay with SK-MEL-3 cells, 0.24 µM against human full length PDE3A and 0.71 µM on human full length PDE3B.
Turning to `CN(C)CCN(C)c1ccc(C2=NNC(=O)OC2)cc1C(F)(F)F` [Example 324, 5-[4-{[2-(dimethylamino)ethyl](methyl)amino}-3-(trifluoromethyl)phenyl]-3,6-dihydro-2H-1,3,4-oxadiazin-2-one], the IC50 is over 100 nM with HeLa cells, over 100 nM in the assay on SK-MEL-3 cells, over 1 µM on human full length PDE3A and over 1 µM against human full length PDE3B.
